Source: ChEMBL document CHEMBL1146311, “Carbonic anhydrase activators: L-Adrenaline plugs the active site entrance of isozyme II, activating better isoforms I, IV, VA, VII, and XIV” (Bioorg Med Chem Lett, 2007)

How the values were obtained:
[1] = biological target: Carbonic anhydrase 7 (Homo sapiens) (UniProt P43166)
Description: Activation of human recombinant CA7 by CO2 hydration method

[2] = biological target: Carbonic anhydrase 4 (Homo sapiens) (UniProt P22748)
Description: Activation of human recombinant CA4 by CO2 hydration method

[3] = biological target: Carbonic anhydrase 1 (Homo sapiens) (UniProt P00915)
Description: Activation of human recombinant CA1 by CO2 hydration method

[4] = biological target: Carbonic anhydrase 2 (Homo sapiens) (UniProt P00918)
Description: Activation of human recombinant CA2 by CO2 hydration method

[5] = biological target: Carbonic anhydrase 5A, mitochondrial (Homo sapiens) (UniProt P35218)
Description: Activation of human recombinant CA5A by CO2 hydration method

[6] = biological target: Carbonic anhydrase 14 (Homo sapiens) (UniProt Q9ULX7)
Description: Activation of human recombinant CA14 by CO2 hydration method

NCCc1c[nH]cn1 [7] = details: Homo sapiens; 10 uM
Description: (§1) Activity of human recombinant CA2 at 10 uM by stopped-flow technique

[8] = tested on: CNC[C@H](O)c1ccc(O)c(O)c1; details: Homo sapiens; 10 uM
Description: as §1

NCCc1c[nH]cn1 [9] = details: Homo sapiens; 10 uM; remark: listed apart in the source
Description: (§2) Activity of human recombinant CA1 at 10 uM by stopped-flow technique

[10] = tested on: CNC[C@H](O)c1ccc(O)c(O)c1; details: Homo sapiens; 10 uM; remark: listed apart in the source
Description: as §2

Carbonic anhydrase 1 (Homo sapiens), P00915, sequence (P00915 whole entry): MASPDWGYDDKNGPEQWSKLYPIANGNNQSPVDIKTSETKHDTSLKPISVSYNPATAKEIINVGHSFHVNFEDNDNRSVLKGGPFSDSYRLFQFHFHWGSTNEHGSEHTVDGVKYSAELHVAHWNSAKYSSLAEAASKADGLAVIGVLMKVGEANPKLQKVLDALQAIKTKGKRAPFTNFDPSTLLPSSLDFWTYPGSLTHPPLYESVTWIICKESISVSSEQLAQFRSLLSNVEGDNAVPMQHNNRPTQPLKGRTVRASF
Carbonic anhydrase 1 (Homo sapiens), sequence (P00915 2-261 limits assumed): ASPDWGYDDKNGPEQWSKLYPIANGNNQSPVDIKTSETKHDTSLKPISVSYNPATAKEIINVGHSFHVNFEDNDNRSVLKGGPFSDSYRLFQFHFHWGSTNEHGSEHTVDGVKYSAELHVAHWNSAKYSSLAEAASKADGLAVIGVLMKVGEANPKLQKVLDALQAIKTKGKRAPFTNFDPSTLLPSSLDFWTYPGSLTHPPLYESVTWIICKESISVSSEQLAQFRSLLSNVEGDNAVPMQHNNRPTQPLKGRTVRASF
Carbonic anhydrase 5A, mitochondrial (Homo sapiens), sequence (P35218 whole entry): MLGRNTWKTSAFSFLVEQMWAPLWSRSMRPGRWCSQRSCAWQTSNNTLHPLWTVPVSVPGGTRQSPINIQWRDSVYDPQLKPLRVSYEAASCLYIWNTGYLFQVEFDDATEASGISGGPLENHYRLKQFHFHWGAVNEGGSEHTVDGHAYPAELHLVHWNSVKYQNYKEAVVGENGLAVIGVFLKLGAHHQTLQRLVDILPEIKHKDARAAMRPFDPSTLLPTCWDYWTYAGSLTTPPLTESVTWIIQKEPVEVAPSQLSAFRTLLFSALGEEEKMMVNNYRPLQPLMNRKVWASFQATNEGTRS
Carbonic anhydrase 7 (Homo sapiens), sequence (P43166 whole entry): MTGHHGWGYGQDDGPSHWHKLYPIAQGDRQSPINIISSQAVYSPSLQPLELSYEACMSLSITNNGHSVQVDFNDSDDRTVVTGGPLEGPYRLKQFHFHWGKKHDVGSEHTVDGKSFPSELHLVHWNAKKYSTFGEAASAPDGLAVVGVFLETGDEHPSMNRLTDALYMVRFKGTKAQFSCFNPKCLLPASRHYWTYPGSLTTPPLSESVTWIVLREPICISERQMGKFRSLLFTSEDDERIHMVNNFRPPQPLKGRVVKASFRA
Carbonic anhydrase 4 (Homo sapiens), sequence (P22748 whole entry): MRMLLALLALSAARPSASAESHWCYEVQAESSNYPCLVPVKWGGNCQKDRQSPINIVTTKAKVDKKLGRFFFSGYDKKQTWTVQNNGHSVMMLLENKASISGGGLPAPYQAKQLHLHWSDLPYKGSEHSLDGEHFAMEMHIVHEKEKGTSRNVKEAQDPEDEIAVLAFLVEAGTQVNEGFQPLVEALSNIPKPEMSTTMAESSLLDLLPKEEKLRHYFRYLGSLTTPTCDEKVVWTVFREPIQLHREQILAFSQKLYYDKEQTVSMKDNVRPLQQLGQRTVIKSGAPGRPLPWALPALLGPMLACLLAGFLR
Carbonic anhydrase 14 (Homo sapiens), sequence (Q9ULX7 whole entry): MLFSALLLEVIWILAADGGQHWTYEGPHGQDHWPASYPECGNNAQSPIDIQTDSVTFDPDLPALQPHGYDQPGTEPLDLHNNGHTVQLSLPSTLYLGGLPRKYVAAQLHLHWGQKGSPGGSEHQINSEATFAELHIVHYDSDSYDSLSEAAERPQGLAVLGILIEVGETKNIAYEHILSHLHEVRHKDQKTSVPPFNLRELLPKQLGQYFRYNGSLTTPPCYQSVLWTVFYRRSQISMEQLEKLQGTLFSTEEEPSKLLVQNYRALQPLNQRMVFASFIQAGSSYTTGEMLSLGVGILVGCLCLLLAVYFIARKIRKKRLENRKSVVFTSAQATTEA

Ka [1] [µM]	Ka [2] [µM]	Ka [3] [µM]	Ka [4] [µM]	Ka [5] [µM]	Ka [6] [µM]	Compound	kcat (NCCc1c[nH]cn1 [7])	kcat [8]	kcat (NCCc1c[nH]cn1 [9])	kcat [10]
1.3	31	0.05	74	2.5	1.9	NCCc1c[nH]cn1	–	–	–	–
60	45	0.09	96	63	36	CNC[C@H](O)c1ccc(O)c(O)c1	–	–	–	–
–	–	–	–	–	–	Carbonic anhydrase 2 (Homo sapiens) (from UniProt P00918)	2 10^6/s	1.7 10^6/s	–	–
–	–	–	–	–	–	Carbonic anhydrase 1 (Homo sapiens), P00915	–	–	12.7 10^5/s	10.4 10^5/s
